Source: publication PMC7562719, “Discovery of a CNS penetrant small molecule SMN2 splicing modulator with improved tolerability for spinal muscular atrophy” (Scientific Reports, 2020)

Columns and labels:
[1] = molecular target: T1, rat N type calcium channel (Rattus norvegicus, UniProt Q02294); assay: Eurofins selectivity panel: N type calcium channel; format: binding
T1 construct: purchased Eurofins Inc

[2] = test system: 106 representative proteins that are drug discovery targets; assay: Eurofins selectivity panel of 106 representative proteins
[3] = general in vitro toxicity and ADME tests; settings: solubility, PAMPA, MDR1, stability, CYP inhibition, CYP induction/PXR, hERG, cytotoxicity, umu, Ames, in vitro micronucleus test
[4] = test system: SMNΔ7 mice; assay: murine model of SMA (SMNΔ7 mice): survival, body weight, righting reflex; format: in vivo, mouse; settings: for SMA mice that survived / survivors at P65 / total mice: 20 mg/kg; for survivors at P65 / total mice: SMA mice
Method: A pair of heterozygous SMNΔ7 mice[28] (mSmn+/−, SMN2+/+, SMNΔ7+/+) were purchased from Jackson Laboratory (USA, stock number 005025). The homozygous SMNΔ7 mice (affected and referred to as “SMNΔ7 mice”; mSmn−/−, SMN2+/+, SMNΔ7+/+) was generated by cross-bleeding of heterozygous SMNΔ7 mice. All experiments were approved and monitored by the animal experiment committee of Gifu Pharmaceutical University and were performed after approval by the Bioethics and Biosafety Committee of Gifu Pharmaceutical University. All procedures relating to animal care and treatment confirmed to animal care guidelines issued by the National Institutes of Health.
SMNΔ7 mice were treated with 2, 6, and 20 mg/kg TEC-1 (succinate) once a day by intraperitoneal injection (TERUMO, Japan) from P2 to P23. TEC-1 was diluted in 0.9% NaCl (aqueous) for intraperitoneal injection. After P24, TEC-1 was administrated one a day orally using 0.4 × 0.7 mm feeding needle (Primetech Corporation, Japan). For oral administration, TEC-1 was diluted in distilled water (Otsuka Pharmaceutical Factory, Japan). Heterozygous mice received equal volumes of vehicle.
Survival and body weight were assessed daily. Righting reflex test[15] tests were performed […] at P6, 11 and 16. Righting time was defined as the time it took a pup to turn over to its front after being placed completely on its back (maximum 60 s). Dead individuals were set to 60 s.

[5] = test system: SMN protein; assay: SMN protein in iPSC-derived motor neurons (HTRF, western blot); format: cell-based, human; settings: iPSC-derived motor neurons (GM24468), 3 days
Method: GM03813 fibroblasts and GM24468-derived MNs were seeded at 1.5 × 10^4 and 4 × 10^4 cells/well in 96-well plates and were treated with TEC-1 or SMN-C3 for 72 h at the concentration of 0.01, 0.03, 0.1, 0.3, 1, or 3 µM. After 72 h exposure of compound, GM24468 derived MNs and GM03813 fibroblasts were washed once with D-PBS (-), lysed with RIPA buffer (Wako) containing cOmplete (Sigma-Aldrich) and PhosSTOP (Sigma-Aldrich). The lysates were spun at 15,000 rpm for 15 min at 4 °C, and the supernatants were collected. The protein concentration was quantified with BCA kit (Wako). The lysates, adjusted to have the same protein amount, were mixed with NuPAGE LDS sample buffer containing DTT and heated at 95 °C for 5 min. Except for HTT detection, each sample (2 µg total protein/lane) was loaded Perfect NT Gel 7.5–15% gel (DRC, Japan) and run at 150 V for 60–70 min with Tris/glycine/SDS running buffer (BIO-RAD, USA). […] After washing with TBS-T four times, chemiluminescence signals were detected by Immunostar Zeta (Wako) and LAS-4000 (GE healthcare). […]
SMN protein concentration of the cells were quantified using an SMN HTRF kit[15] […] The fluorescence emission was read at two different wavelengths (665 nm and 620 nm or 615 nm) using an Envision plate reader (PerkinElmer, USA) excited by 320 nm. The concentration of protein in each cell lysate were measured by BCA kit (BIO-RAD) and used for normalization.

[6] = test system: ChAT protein; assay: ChAT protein in iPSC-derived motor neurons (western blot); format: cell-based, human; settings: iPSC-derived motor neurons (GM24468), 3 days
Method: GM03813 fibroblasts and GM24468-derived MNs were seeded at 1.5 × 10^4 and 4 × 10^4 cells/well in 96-well plates and were treated with TEC-1 or SMN-C3 for 72 h at the concentration of 0.01, 0.03, 0.1, 0.3, 1, or 3 µM. After 72 h exposure of compound, GM24468 derived MNs and GM03813 fibroblasts were washed once with D-PBS (-), lysed with RIPA buffer (Wako) containing cOmplete (Sigma-Aldrich) and PhosSTOP (Sigma-Aldrich). The lysates were spun at 15,000 rpm for 15 min at 4 °C, and the supernatants were collected. The protein concentration was quantified with BCA kit (Wako). The lysates, adjusted to have the same protein amount, were mixed with NuPAGE LDS sample buffer containing DTT and heated at 95 °C for 5 min. Except for HTT detection, each sample (2 µg total protein/lane) was loaded Perfect NT Gel 7.5–15% gel (DRC, Japan) and run at 150 V for 60–70 min with Tris/glycine/SDS running buffer (BIO-RAD, USA). The proteins were transferred from the gel to Immobilon-P PVDF Membrane (Millipore, USA) with a transfer solution comprising 10% methanol and 1 × Novex Tris-glycine transfer buffer at 25 V for 180–240 min using Criterion blotter (BIO-RAD). […] After washing with TBS-T four times, chemiluminescence signals were detected by Immunostar Zeta (Wako) and LAS-4000 (GE healthcare).

T1 sequence (Q02294 whole entry): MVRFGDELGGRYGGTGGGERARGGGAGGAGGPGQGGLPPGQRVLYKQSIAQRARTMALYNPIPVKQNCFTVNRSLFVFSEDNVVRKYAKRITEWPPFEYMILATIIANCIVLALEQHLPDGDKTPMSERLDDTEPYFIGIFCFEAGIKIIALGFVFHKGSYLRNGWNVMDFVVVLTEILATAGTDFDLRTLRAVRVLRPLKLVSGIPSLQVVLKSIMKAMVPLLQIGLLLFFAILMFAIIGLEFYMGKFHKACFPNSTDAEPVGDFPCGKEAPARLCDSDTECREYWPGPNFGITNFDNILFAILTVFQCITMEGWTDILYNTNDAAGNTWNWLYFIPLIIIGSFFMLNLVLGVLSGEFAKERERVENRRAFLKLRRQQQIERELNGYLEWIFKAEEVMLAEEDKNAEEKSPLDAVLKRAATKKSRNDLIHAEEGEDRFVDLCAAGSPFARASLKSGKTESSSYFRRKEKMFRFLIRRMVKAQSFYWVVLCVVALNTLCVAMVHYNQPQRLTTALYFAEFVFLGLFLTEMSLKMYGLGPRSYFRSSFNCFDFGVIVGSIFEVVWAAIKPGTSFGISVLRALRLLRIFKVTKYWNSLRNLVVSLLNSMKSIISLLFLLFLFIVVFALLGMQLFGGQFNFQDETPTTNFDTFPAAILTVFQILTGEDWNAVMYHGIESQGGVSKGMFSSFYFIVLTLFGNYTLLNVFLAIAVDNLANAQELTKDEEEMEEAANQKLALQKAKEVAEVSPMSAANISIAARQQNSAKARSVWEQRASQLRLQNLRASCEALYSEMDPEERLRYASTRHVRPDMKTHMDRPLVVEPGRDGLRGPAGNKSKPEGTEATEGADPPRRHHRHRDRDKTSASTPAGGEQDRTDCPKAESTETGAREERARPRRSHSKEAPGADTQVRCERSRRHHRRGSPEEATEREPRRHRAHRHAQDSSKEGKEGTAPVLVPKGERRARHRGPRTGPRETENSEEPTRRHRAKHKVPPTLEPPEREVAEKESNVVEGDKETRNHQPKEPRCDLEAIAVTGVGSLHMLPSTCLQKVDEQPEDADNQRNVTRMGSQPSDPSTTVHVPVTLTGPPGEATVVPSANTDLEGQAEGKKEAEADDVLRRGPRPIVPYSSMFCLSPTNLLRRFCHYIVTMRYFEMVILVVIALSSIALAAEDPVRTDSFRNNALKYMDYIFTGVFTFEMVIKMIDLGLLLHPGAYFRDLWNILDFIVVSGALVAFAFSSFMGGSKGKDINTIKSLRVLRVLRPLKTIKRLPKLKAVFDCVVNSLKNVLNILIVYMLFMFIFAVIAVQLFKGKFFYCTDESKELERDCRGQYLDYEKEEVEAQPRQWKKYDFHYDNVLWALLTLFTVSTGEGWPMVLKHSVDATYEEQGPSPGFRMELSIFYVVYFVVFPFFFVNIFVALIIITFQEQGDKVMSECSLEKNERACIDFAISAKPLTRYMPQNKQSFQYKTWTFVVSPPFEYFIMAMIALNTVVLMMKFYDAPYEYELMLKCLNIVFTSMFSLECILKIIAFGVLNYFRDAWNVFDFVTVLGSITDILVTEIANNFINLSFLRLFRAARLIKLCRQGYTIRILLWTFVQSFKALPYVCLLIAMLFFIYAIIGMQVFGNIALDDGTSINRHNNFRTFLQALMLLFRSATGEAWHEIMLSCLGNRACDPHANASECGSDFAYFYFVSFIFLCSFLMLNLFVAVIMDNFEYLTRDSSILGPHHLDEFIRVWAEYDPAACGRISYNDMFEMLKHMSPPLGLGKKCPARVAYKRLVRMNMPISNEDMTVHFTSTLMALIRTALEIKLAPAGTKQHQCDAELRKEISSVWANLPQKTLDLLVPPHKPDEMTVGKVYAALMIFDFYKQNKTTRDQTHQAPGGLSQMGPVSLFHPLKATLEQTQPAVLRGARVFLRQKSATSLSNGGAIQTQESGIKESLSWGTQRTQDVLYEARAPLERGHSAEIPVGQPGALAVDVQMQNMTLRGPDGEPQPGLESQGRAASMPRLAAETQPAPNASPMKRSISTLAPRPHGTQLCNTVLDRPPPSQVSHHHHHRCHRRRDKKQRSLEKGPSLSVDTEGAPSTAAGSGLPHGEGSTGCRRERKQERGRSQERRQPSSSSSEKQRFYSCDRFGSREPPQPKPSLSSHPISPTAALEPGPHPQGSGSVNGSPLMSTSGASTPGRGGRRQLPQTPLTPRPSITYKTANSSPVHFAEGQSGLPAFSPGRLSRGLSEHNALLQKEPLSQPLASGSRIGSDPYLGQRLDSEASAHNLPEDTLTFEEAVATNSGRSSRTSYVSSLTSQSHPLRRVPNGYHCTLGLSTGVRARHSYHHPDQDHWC
T1 sequence (P54287 whole entry partner): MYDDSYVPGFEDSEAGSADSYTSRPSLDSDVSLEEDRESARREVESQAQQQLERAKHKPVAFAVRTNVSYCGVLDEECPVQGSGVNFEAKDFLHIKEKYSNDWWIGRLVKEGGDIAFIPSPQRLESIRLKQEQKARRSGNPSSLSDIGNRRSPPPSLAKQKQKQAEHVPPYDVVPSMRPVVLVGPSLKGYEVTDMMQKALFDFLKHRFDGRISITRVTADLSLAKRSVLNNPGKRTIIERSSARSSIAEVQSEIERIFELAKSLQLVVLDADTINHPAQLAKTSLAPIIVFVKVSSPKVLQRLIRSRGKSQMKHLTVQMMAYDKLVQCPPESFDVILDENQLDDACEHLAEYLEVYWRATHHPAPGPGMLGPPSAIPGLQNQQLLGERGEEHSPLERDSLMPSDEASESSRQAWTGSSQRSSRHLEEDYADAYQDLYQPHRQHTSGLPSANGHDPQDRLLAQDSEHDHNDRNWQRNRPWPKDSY
T1 sequence (P54290 25-944 partner limits assumed): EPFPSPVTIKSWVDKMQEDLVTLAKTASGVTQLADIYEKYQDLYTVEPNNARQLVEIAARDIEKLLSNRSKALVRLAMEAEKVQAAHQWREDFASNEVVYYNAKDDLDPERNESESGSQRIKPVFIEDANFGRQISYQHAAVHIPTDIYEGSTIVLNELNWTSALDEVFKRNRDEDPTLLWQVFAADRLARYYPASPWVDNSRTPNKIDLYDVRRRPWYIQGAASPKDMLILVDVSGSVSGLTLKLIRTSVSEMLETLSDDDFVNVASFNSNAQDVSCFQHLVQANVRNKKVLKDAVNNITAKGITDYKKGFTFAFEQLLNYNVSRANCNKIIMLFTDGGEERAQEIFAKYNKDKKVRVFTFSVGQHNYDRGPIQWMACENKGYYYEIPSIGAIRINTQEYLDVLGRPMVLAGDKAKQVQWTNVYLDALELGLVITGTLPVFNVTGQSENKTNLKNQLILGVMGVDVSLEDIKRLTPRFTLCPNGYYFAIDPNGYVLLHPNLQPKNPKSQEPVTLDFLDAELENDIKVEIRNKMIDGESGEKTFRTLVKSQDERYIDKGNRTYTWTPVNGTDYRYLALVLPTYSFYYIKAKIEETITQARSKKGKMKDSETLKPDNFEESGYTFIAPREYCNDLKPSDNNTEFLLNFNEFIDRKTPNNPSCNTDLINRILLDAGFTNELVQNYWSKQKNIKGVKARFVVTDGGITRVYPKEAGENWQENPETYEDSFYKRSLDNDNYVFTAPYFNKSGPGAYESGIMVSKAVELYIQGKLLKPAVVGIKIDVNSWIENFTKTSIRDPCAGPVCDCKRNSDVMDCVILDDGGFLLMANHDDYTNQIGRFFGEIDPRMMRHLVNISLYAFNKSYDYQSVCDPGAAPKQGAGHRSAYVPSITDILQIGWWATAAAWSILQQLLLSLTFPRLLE
T1 sequence (P54290 945-1091 partner limits assumed): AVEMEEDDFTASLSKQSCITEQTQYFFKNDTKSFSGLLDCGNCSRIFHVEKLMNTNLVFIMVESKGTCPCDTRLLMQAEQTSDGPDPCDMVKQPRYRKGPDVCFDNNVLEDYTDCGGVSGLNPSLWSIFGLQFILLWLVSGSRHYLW

Question: With Cc1cn2nc(-c3nc4ccc(N5CCN(C)CC5)cc4c(=O)[nH]3)cc2c(C)n1 [TEC-1, 2-(4,6-dimethylpyrazolo[1,5-a]pyrazin-2-yl)-6-(4-methylpiperazin-1-yl)quinazolin-4(3H)-one] as the compound, how does the IC50 [1] read?
Answer: The IC50 was 8.8 µM.

Question: What about the “effect on biological activity of 106 representative proteins” value [2] of the same compound?
Answer: The value was “weakly affected the biological activity of only two targets”.

Question: What about the “general in vitro toxicity and ADME profile” value [3] of the same compound?
Answer: The value was “good profiles”.

Question: What about the “righting reflex latency compared to vehicle-treated mice” value ([4]; 2 mg/kg, P16) of the same compound?
Answer: The value was “significantly shortened latency time”.

Question: What about the “SMA mice that survived” value ([4]; administered intraperitoneally throughout) of the same compound?
Answer: The value was 66%.

Question: And the “SMA mice that survived” value ([4]; oral administration after weaning)?
Answer: Its value is 40%.

Question: And the “body mass compared to vehicle-treated SMNΔ7 mice” value ([4]; 2, 6, 20 mg/kg once a day)?
Answer: Its value is “increased body mass”.

Question: And the “survival compared with vehicle-treated SMNΔ7 mice” value ([4]; 2, 6, 20 mg/kg once a day, Kaplan–Meier to P65)?
Answer: Its value is “enhanced the survival”.

Question: What about the “survivors at P65 / total mice” value ([4]; 20 mg/kg once daily (i.p. P2-P23, then p.o.)) of the same compound?
Answer: The value was 4 of 10.

Question: And the “survivors at P65 / total mice” value ([4]; 20 mg/kg once daily (i.p.-i.p.), TEC-1 succinate)?
Answer: The value was 2 of 3.

Question: What about the survival until weaning ([4]; all SMA model mice, 20 mg/kg intraperitoneally) of the same compound?
Answer: The survival until weaning was “survived until weaning”.

Question: And the “concentration that increased SMA protein” value [5]?
Answer: Its value is 100 nM.

Question: And the ChAT protein level [6]?
Answer: Its ChAT protein level is “increase the levels of choline acetyltransferase (ChAT)”.
